Assay type in all cases: physicochemical
Data set [1] can be described thus: Storage of amorphous anhydrous form at ambient conditions. How it is done: . The amorphous anhydrous form of (S)-CSA salt of S-ketamine was also obtained (in a mixture with the monohdrate form) by slurrying the crystalline monohydrate form of (S)-CSA salt of S-ketamine in 2-methyl THF or isopropyl acetate at about 80° C. for about 4 days.
Data set [2] is described as follows: TG-FTIR measurement. Particulars: 25° C. to 300° C., 10K/min, nitrogen. How it is done:
ThermoGravimetric-Fourier Transform InfraRed (TG-FTIR) measurements, where carried out were measures using a Netzsche Thermo-Microbalance TG209 with Bruker FT-IR Spectrometer Vector 22, with aluminum crucible with microhoel, nitrogen atmosphere and scanning form 25° C. to 300° C. at a heating rate of 10K/min.

Data set [3] in a line: Dynamic Vapor Sorption (DVS) measurement. How it is done:
Dynamic Vapor Sorption (DVS) measurements (where completed) were measured using a Projekt Messtechnik Sorptions Prufsystem SPS 11 or Surface Measurement Systems DVS-1 scanning (cycling relative humidity and hodling the sample at a set relative humidity) as follow: (a) holding sample at 50% RH for 2 hours; (b) 50% RH to 0% RH (5%/h); holding at 0% RH for 5 hours; (c) 0% RH to 95% RH (5%/h); holding at 95% RH for 5 hours; and (d) 95% RH to 50% RH (5%/h); holding at 50% RH for 2 hours.

A short description of data set [4]: Approximate solubility by stepwise dilution of a suspension. The following applies: thermodynamic from solid. How it is done:
The approximate solubility of the monohydrate crystalline form of the (S)-CSA salt of S-ketamine was measured by stepwise dilution of a suspension of about 10 mg of the sample in 0.05 mL solvent. Table 4 below lists the approximate solubility, denoted “S”. If a sample was not dissolved by addition of a total of 10-12 mL of solvent, the solubility is indicated as <1 mg/mL in the Table 4, below.

Data set [5] in a line: Solubility in select solvents after 24 hours, filtrate analyzed by HPLC. How it is done: Additionally, the solubility of the monohydrate crystalline form of the (S)-CSA salt of S-ketamine in select solvents was determined as follows: 21 g of (S)-CSA salt of S- ketamine was dissolved in 100 mL of solvent (as listed in Table 5 below). After 24 hours, the solutions were analyzed visually. If the compound was completely dissolved, solubility was above 20 g/100 mL. If the compound was not completely dissolved, any remaining precipitate was filtered off, the filtrate was diluted 400-fold with HPLC dilution solvent (or acetonitrile/HPLC dilution solvent) and analyzed by HPLC, with results as listed in Table 5, below.

The solubility is how much of the substance goes into solution per volume. By thermodynamic solubility is commonly meant the concentration in solution at equilibrium with solid.

As for `CC1(C)[C@@H]2CC[C@@]1(CS(=O)(=O)O)C(=O)C2.CN[C@]1(c2ccccc2Cl)CCCCC1=O`, the Hygroscopicity result in data set [1] (amorphous, anhydrous form) was “hygroscopic”. Also, in data set [1] (storage at ambient conditions), the “Form stability on storage” value is “rapidly converts to the monohydrate form”.
`CN[C@]1(c2ccccc2Cl)CCCCC1=O` [(S)-2-(2-chlorophenyl)-2-(methylammonium)cyclohexanone(+)-camphorsulfonate monohydrate]: the Chemical decomposition temperature entry in data set [2] is “above 230 °C”. Moreover, the Hygroscopicity entry in data set [3] (cycling 0% RH to 95% RH) was “no hygroscopicity”. In addition, in data set [3] (elevated relative humidity), the “Physical stability at elevated relative humidity” value was “physical stability”. The solubility in data set [4] (10:1 acetone:water, organic solvent or mixture, solvent: 10:1 aectobne:water) lay in the range of 20 to 24 mg/mL; in data set [4] (aqueous with cosolvent or surfactant or cyclodextrin, solvent: 1:1 2-propanol:water), 93 to 189 mg/mL; in data set [4] (aqueous with cosolvent or surfactant or cyclodextrin, solvent: 1:1 acetone:water), 58 to 77 mg/mL; in data set [4] (organic solvent or mixture, solvent: 1,4-dioxane) it was 5 to 6 mg/mL; in data set [4] (organic solvent or mixture, solvent: 1:1 2-propanol:isopropyl acetate), 10 to 11 mg/mL; in data set [4] (organic solvent or mixture, solvent: 2-methyl THF saturated with water), 6 to 8 mg/mL. In addition, the solubility lay in the range of 5 to 7 mg/mL in data set [4] (organic solvent or mixture, solvent: 2-methyl-THF); 22 to 25 mg/mL in data set [4] (organic solvent or mixture, solvent: 2-propanol); 24 to 28 mg/mL in data set [4] (organic solvent or mixture, solvent: 10:1 2-propanol:water); 67 to 101 mg/mL in data set [4] (organic solvent or mixture, solvent: DCM); 91 to 185 mg/mL in data set [4] (organic solvent or mixture, solvent: DMF); 106 to 212 mg/mL in data set [4] (organic solvent or mixture, solvent: DMSO). In addition, the solubility in data set [4] (organic solvent or mixture, solvent: TBME) was below 1 mg/mL; in data set [4] (organic solvent or mixture, solvent: THF), 5 to 7 mg/mL; in data set [4] (organic solvent or mixture, solvent: acetone), 5 to 6 mg/mL; in data set [4] (organic solvent or mixture, solvent: acetonitrile) it was 22 to 24 mg/mL; in data set [4] (organic solvent or mixture, solvent: anisole), below 1 mg/mL; in data set [4] (organic solvent or mixture, solvent: ethanol) it was 67 to 100 mg/mL. In addition, the solubility in data set [4] (organic solvent or mixture, solvent: ethyl acetate) was below 1 mg/mL; in data set [4] (organic solvent or mixture, solvent: heptane), below 1 mg/mL; in data set [4] (organic solvent or mixture, solvent: isopropyl acetate), below 1 mg/mL; in data set [4] (organic solvent or mixture, solvent: methanol) it was above 226 mg/mL; in data set [4] (organic solvent or mixture, solvent: toluene), below 1 mg/mL; in data set [4] (solvent: water), 20 to 24 mg/mL. For the same compound, the “Solubility at 23.6° C.” value in data set [5] (solvent: 2-propanol) was 7.275 g/100 mL; in data set [5] (solvent: N,N-dimethylacetamide), 18.200 g/100 mL; in data set [5] (solvent: N,N-dimethylformamide), 18.267 g/100 mL; in data set [5] (solvent: acetic acid), 18.209 g/100 mL; in data set [5] (solvent: acetone (2-propanone)), 0.578 g/100 mL; in data set [5] (solvent: dichloromethane/methanol (50/50 v/v)), 18.589 g/100 mL. Further, the “Solubility at 23.6° C.” value in data set [5] (solvent: ethanol) came out at 18.297 g/100 mL; in data set [5] (solvent: methanol) it was 18.457 g/100 mL. Moreover, in data set [5] (thermodynamic from solid, solvent: demineralized water, 23.6° C.), the solubility (thermodynamic) at 24 h was found to be 53.4 mg/mL.
